Biological target: T1, human lysozyme (Homo sapiens, UniProt P61626)
T1 construct: gene LYZ; wild type, expressed in Pichia pastoris (residues 1 to 130)
T1 sequence (P61626 19-148): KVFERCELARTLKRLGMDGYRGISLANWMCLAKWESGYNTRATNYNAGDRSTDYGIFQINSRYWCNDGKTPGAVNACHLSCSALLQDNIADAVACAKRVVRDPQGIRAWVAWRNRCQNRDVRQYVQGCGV
Experiment: SPR (Biacore single chain kinetics); also 1H-15N HSQC NMR titration and RDCs of the bound state
Type: binding

- Kd: ~9 µM
SMILES: CC(=O)N[C@H]1[C@H](O[C@H]2[C@H](O)[C@@H](NC(C)=O)C(O)O[C@@H]2CO)O[C@H](CO)[C@@H](O[C@@H]2O[C@H](CO)[C@@H](O)[C@H](O)[C@H]2NC(C)=O)[C@@H]1O (stereo partly shown) [triNAG, N,N′,N′′-Triacetylchitotriose]
